In patent US20240166652A1, “MODULATORS OF THE INTEGRATED STRESS PATHWAY” (Calico Life Sciences LLC, priority 2017, published 2024) one finds EC50 data, which are given here for 30 molecules.

This assay deals with ATF4 luciferase reporter in HEK293T cells. Description: ATF4-Luc assay (ATF4 luciferase reporter, tunicamycin-treated HEK293T cells). To be noted: Homo sapiens, HEK-293T; HEK293T cells carrying the ATF4 luciferase reporter, 1 μg/mL tunicamycin, 7 hours. In kind it is cell-based, human.
For `CC(O)c1ccc(OCC(=O)NC23CC(NC(=O)COc4ccc(Cl)c(F)c4)(C2)C3)cn1` (stereo not drawn) [Compound 263, 2-(4-chloro-3-fluorophenoxy)-N-[3-(2-{[6-(1-hydroxyethyl)pyridin-3-yl]oxy}acetamido)bicyclo[1.1.1]pentan-1-yl]acetamide], the EC50 is 500 to 2000 nM.

As for `COC(=O)c1ccc(OCC(=O)NC23CC(NC(=O)COc4ccc(Cl)c(F)c4)(C2)C3)cn1` [Compound 264, methyl 5-[2-({3-[2-(4-chloro-3-fluorophenoxy)acetamido]bicyclo-[1.1.1]pentan-1-yl}amino)-2-oxoethoxy]pyridine-2-carboxylate], the EC50 was in the range of 500 to 2000 nM.

Turning to `O=C(COc1ccnc(C(F)(F)F)c1)NC12CC(NC(=O)COc3ccc4c(c3)OC(F)(F)O4)(C1)C2` [Compound 265, 2-[(2,2-difluoro-2H-1,3-benzodioxol-5-yl)oxy]-N-[3-(2-{[2-(trifluoromethyl)pyridin-4-yl]oxy}acetamido)bicyclo[1.1.1]pentan-1-yl]acetamide], the EC50 was in the range of 10 to 50 nM.

Turning to `O=C(COc1ccc(C(F)(F)F)nc1)NC12CC(NC(=O)COc3ccc4c(c3)OC(F)(F)O4)(C1)C2` [Compound 266, 2-[(2,2-difluoro-2H-1,3-benzodioxol-5-yl)oxy]-N-[3-(2-{[6-(trifluoromethyl)-pyridin-3-yl]oxy}acetamido)bicyclo[1.1.1]pentan-1-yl]acetamide], the EC50 was below 10 nM.

For `N#Cc1ccc(OCC(=O)NC23CC(NC(=O)COc4ccc5c(c4)OC(F)(F)O5)(C2)C3)cn1` [Compound 267, 2-[(6-cyanopyridin-3-yl)oxy]-N-(3-{2-[(2,2-difluoro-2H-1,3-benzodioxol-5-yl)oxy]acetamido}bicyclo[1.1.1]pentan-1-yl)acetamide], the EC50 was in the range of 50 to 250 nM.

Regarding `O=C(COc1ccc(C2CC2)nc1)NC12CC(NC(=O)COc3ccc4c(c3)OC(F)(F)O4)(C1)C2` [Compound 268, 2-[(6-cyclopropylpyridin-3-yl)oxy]-N-(3-{2-[(2,2-difluoro-2H-1,3-benzodioxol-5-yl)oxy]acetamido}bicyclo[1.1.1]pentan-1-yl)acetamide], the concentration for a half-maximal effect (EC50) was in the range of 10 to 50 nM.

With `O=C(COc1cncc(C(F)(F)F)c1)NC12CC(NC(=O)COc3ccc4c(c3)OC(F)(F)O4)(C1)C2` [Compound 269, 2-[(2,2-difluoro-2H-1,3-benzodioxol-5-yl)oxy]-N-[3-(2-{[5-(trifluoromethyl)pyridin-3-yl]oxy}acetamido)bicyclo[1.1.1]pentan-1-yl]acetamide], the EC50 is 10 to 50 nM.

On to `N#Cc1cc(OCC(=O)NC23CC(NC(=O)COc4ccc5c(c4)OC(F)(F)O5)(C2)C3)ccn1` [Compound 270, 2-[(2-cyanopyridin-4-yl)oxy]-N-(3-{2-[(2,2-difluoro-2H-1,3-benzodioxol-5-yl)oxy]acetamido}bicyclo[1.1.1]pentan-1-yl)acetamide], for which the concentration for a half-maximal effect (EC50) fell in the range of 250 to 500 nM.

Regarding `COc1ccc(OCC(=O)NC23CC(NC(=O)COc4ccc5c(c4)OC(F)(F)O5)(C2)C3)cn1` [Compound 271, 2-[(2,2-difluoro-2H-1,3-benzodioxol-5-yl)oxy]-N-(3-{2-[(6-methoxypyridin-3-yl)oxy]acetamido}bicyclo[1.1.1]pentan-1-yl)acetamide], the half-maximal effective concentration (EC50) lay in the range of 10 to 50 nM.

On to `O=C(COc1ccc(Cl)c(F)c1)NC12CCC(NC(=O)COc3ccc(Cl)c(F)c3)(CC1)C(=O)C2` [Compound 272, N,N′-(2-oxobicyclo[2.2.2]octane-1,4-diyl)bis[2-(4-chloro-3-fluorophenoxy)acetamide]], for which the EC50 is below 10 nM.

Turning to `O=C(COc1ccc(Cl)c(F)c1)NC12CCC(NC(=O)COc3ccc(Cl)c(F)c3)(CC1)C(O)C2` (stereo not drawn) [Compound 273, N,N′-(2-hydroxybicyclo[2.2.2]octane-1,4-diyl)bis[2-(4-chloro-3-fluorophenoxy)acetamide]], the EC50 is below 10 nM.

Regarding `O=C(COc1ccc2c(c1)OC(F)(F)O2)NC12CC(NC(=O)COc3ccc4c(c3)OC(F)(F)O4)(C1)C2` [Compound 274, N,N′-(bicyclo[1.1.1]pentane-1,3-diyl)bis{2-[(2,2-difluoro-2H-1,3-benzodioxol-5-yl)oxy]acetamide}], the EC50 is below 10 nM.

Take `COC(=O)c1cc(OCC(=O)NC23CC(NC(=O)COc4ccc5c(c4)OC(F)(F)O5)(C2)C3)ccc1Cl` [Compound 275, methyl 2-chloro-5-{2-1(3-{2-[(2,2-difluoro-2H-1,3-benzodioxol-5-yl)oxy]acetamido}bicyclo[1.1.1]pentan-1-yl)aminol-2-oxoethoxy}benzoate]: the 50% effective concentration (EC50) was in the range of 500 to 2000 nM.

On to `O=C(COc1ccc(Cl)c(CO)c1)NC12CC(NC(=O)COc3ccc4c(c3)OC(F)(F)O4)(C1)C2` [Compound 276, 2-[4-chloro-3-(hydroxymethyl)phenoxy]-N-(3-{2-[(2,2-difluoro-2H-1,3-benzodioxol-5-yl)oxy]acetamido}bicyclo[1.1.1]pentan-1-yl)acetamide], for which the concentration for a half-maximal effect (EC50) was in the range of 10 to 50 nM.

For `N#Cc1cc(OCC(=O)NC23CC(NC(=O)COc4ccc(Cl)c(F)c4)(C2)C3)ccn1` [Compound 277, 2-(4-chloro-3-fluorophenoxy)-N-(3-{2-[(2-cyanopyridin-4-yl)oxy]acetamido}bicyclo[1.1.1]pentan-1-yl)acetamide], the half-maximal effective concentration (EC50) lay in the range of 250 to 500 nM.

In the case of `O=C(COc1ccc(S(F)(F)(F)(F)F)cc1)NC12CC(NC(=O)COc3ccc4c(c3)OC(F)(F)O4)(C1)C2` [Compound 278, 2-[(2,2-difluoro-2H-1,3-benzodioxol-5-yl)oxy]-N-(3-{2-[4-(pentafluoro-λ^6-sulfanyl)phenoxy]acetamido}bicyclo[1.1.1]pentan-1-yl)acetamide], the concentration for a half-maximal effect (EC50) lay in the range of 10 to 50 nM.

Turning to `O=C(COCc1ccc(OC(F)F)nc1)NC12CC(NC(=O)COc3ccc(Cl)c(F)c3)(C1)C2` [Compound 279, 2-(4-chloro-3-fluorophenoxy)-N-[3-(2-{[6-(difluoromethoxy)pyridin-3-yl]methoxy}acetamido)bicyclo[1.1.1]pentan-1-yl]acetamide], the EC50 fell in the range of 250 to 500 nM.

For `O=C(COCc1ccc(-n2cccn2)nc1)NC12CC(NC(=O)COc3ccc(Cl)c(F)c3)(C1)C2` [Compound 280, 2-(4-chloro-3-fluorophenoxy)-N-[3-(2-{[6-(1H-pyrazol-1-yl)pyridin-3-yl]methoxy}acetamido)bicyclo[1.1.1]pentan-1-yl]acetamide], the 50% effective concentration (EC50) is above 2000 nM.

Regarding `COc1ccc(COCC(=O)NC23CC(NC(=O)COc4ccc(Cl)c(F)c4)(C2)C3)cn1` [Compound 281, 2-(4-chloro-3-fluorophenoxy)-N-(3-{2-[(6-methoxypyridin-3-yl)methoxy]acetamido}bicyclo[1.1.1]pentan-1-yl)acetamide], the concentration for a half-maximal effect (EC50) lay in the range of 500 to 2000 nM.

Take `Cc1cc(COCC(=O)NC23CC(NC(=O)COc4ccc(Cl)c(F)c4)(C2)C3)cc(C)n1` [Compound 282, 2-(4-chloro-3-fluorophenoxy)-N-(3-{2-[(2,6-dimethylpyridin-4-yl)methoxy]acetamido}bicyclo[1.1.1]pentan-1-yl)acetamide]: the EC50 was above 2000 nM.

As to `N#Cc1ccc(COCC(=O)NC23CC(NC(=O)COc4ccc(Cl)c(F)c4)(C2)C3)cn1` [Compound 283, 2-(4-chloro-3-fluorophenoxy)-N-(3-{2-[(6-cyanopyridin-3-yl)methoxy]acetamido}bicyclo[1.1.1]pentan-1-yl)acetamide], the EC50 lay in the range of 500 to 2000 nM.

Regarding `O=C(COCc1ccc(C(F)(F)F)nc1)NC12CC(NC(=O)COc3ccc(Cl)c(F)c3)(C1)C2` [Compound 284, 2-(4-chloro-3-fluorophenoxy)-N-[3-(2-{[6-(trifluoromethyl)pyridin-3-yl]methoxy}acetamido)bicyclo[1.1.1]pentan-1-yl]acetamide], the EC50 lay in the range of 10 to 50 nM.

As for `O=C(COc1ccc(Cl)c(Cl)c1)NC12CC(NC(=O)COc3cnc(C4CC4)cn3)(C1)C2` [Compound 285, 2-[(5-cyclopropylpyrazin-2-yl)oxy]-N-{3-[2-(3,4-dichlorophenoxy)acetamido]-bicyclo[1.1.1]pentan-1-yl}acetamide], the EC50 was in the range of 50 to 250 nM.

`O=C(COc1ccc(Cl)c(F)c1)NC12CC(NCC(=O)c3ccc(Cl)c(Cl)c3)(C1)C2` [Compound 286, 2-(4-chloro-3-fluorophenoxy)-N-(3-{[2-(3,4-dichlorophenyl)-2-oxoethyl]amino}bicyclo[1.1.1]pentan-1-yl)acetamide]: the 50% effective concentration (EC50) lay in the range of 50 to 250 nM.

Turning to `O=C(COc1ccc(Cl)c(Cl)c1)NC12CC(NCC(=O)c3ccc(Cl)cc3)(C1)C2` [Compound 287, N-(3-{[2-(4-chlorophenyl)-2-oxoethyl]amino}bicyclo[1.1.1]pentan-1-yl)-2-(3,4-dichlorophenoxy)acetamide], the half-maximal effective concentration (EC50) fell in the range of 50 to 250 nM.

As to `O=C(COc1ccc(Cl)c(Cl)c1)NC12CC(NCC(O)c3ccc(Cl)cc3)(C1)C2` (stereo not drawn) [Compound 288, N-(3-{[2-(4-chlorophenyl)-2-hydroxyethyl]amino}bicyclo[1.1.1]pentan-1-yl)-2-(3,4-dichlorophenoxy)acetamide], the concentration giving a half-maximal response (EC50) fell in the range of 50 to 250 nM.

As to `O=C(COc1ccc(Cl)c(F)c1)NC12CC(NCC(=O)c3ccc(Cl)cc3)(C1)C2` [Compound 289, 2-(4-chloro-3-fluorophenoxy)-N-(3-{[2-(4-chlorophenyl)-2-oxoethyl]amino}bicyclo[1.1.1]pentan-1-yl)acetamide], the EC50 was in the range of 50 to 250 nM.

For the molecule `O=C(COc1ccc(Cl)c(F)c1)NC12CC(NCC(O)c3ccc(Cl)cc3)(C1)C2` (stereo not drawn) [Compound 290, 2-(4-chloro-3-fluorophenoxy)-N-(3-{[2-(4-chlorophenyl)-2-hydroxyethyl]amino}bicyclo[1.1.1]pentan-1-yl)acetamide], the EC50 fell in the range of 500 to 2000 nM.

With `O=C(COc1ccc(Cl)c(F)c1)NC12CC(NCC(=O)c3ccc(Cl)c(F)c3)(C1)C2` [Compound 291, 2-(4-chloro-3-fluorophenoxy)-N-(3-{[2-(4-chloro-3-fluorophenyl)-2-oxoethyl]amino}bicyclo[1.1.1]pentan-1-yl)acetamide], the EC50 lay in the range of 250 to 500 nM.

Consider `O=C(COc1ccc(Cl)c(F)c1)NC12CC(NCC(O)c3ccc(Cl)c(F)c3)(C1)C2` (stereo not drawn) [Compound 292, 2-(4-chloro-3-fluorophenoxy)-N-(3-{[2-(4-chloro-3-fluorophenyl)-2-hydroxyethyl]amino}bicyclo[1.1.1]pentan-1-yl)acetamide], for which the concentration giving a half-maximal response (EC50) fell in the range of 500 to 2000 nM.

In general, EC50 refers to the midpoint of the concentration-response curve.
